Among the test systems are A549; COLO 205; EKVX; HCC 2998; HOP-92; K562; NCI-H23; OVCAR-4; RPMI-8226; SF-268; SF-295; SN12C; SW-620; UO-31; A498; NCI-H226; SNB-19.
What all share (experiment): inhibition of tumour cell growth, NCI panel, 48 h

“And” between values parts separate entries of the source, which are not always exact repeats. Equal entries are not always repeated.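 Each compound was tested at five concentrations against cells in 96-well plates for 48 hours. Here, GI50 denotes the concentration required for 50% inhibition of growth.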 The source made the active and inactive calls. Rule as the data show it: active = GI50 up to about 1.1 µM and inactive = higher.

Consider `O=C1/C(=C\c2ccccc2)C2/C(=C\c3ccccc3)C(=O)/C(=C\c3ccccc3)C2/C1=C\c1ccccc1` (stereo unspecified), for which the GI50 is 2.48 µM (inactive) in the assay on A549; 1.52 µM (inactive) in the assay on COLO 205; 3.89 µM (inactive) in the assay on EKVX; 1.29 µM (inactive) in the assay with HCC 2998; 1.69 µM (inactive) in the assay with HOP-92; 0.565 µM (active) with K562. In addition, the GI50 is 1.62 µM (inactive) in the assay on NCI-H23; 1.21 µM (inactive) with OVCAR-4; 0.336 µM (active) in the assay with RPMI-8226; 2.58 µM (inactive) in the assay on SF-268; 2.07 µM (inactive) in the assay on SF-295; 2.01 µM (inactive) with SN12C. The GI50 with SW-620 is 1.55 µM (inactive); with UO-31, 1.7 µM (inactive).

For the compound `O=C(O)Cn1c(=O)[nH]c(=O)c2c1ncn2Cc1ccccc1`, the GI50 in the assay on A498, in the assay on A549, in the assay with COLO 205, in the assay with EKVX, in the assay with HOP-92 and in the assay with K562 was > 100 µM (inactive) throughout. Further, the GI50 in the assay on NCI-H226, in the assay with NCI-H23, in the assay on RPMI-8226, in the assay with SF-268, in the assay with SN12C and in the assay on SNB-19 was > 100 µM (inactive) throughout. In addition, the GI50 in the assay on SW-620 and in the assay on UO-31 was > 100 µM (inactive) throughout.

For the compound `c1ccc2c(CNCCCCCCCCNCc3cccc4ccccc34)cccc2c1`, the GI50 was 14.7 µM (inactive) in the assay on A498; 2.2 µM (inactive) in the assay with A549; 1.96 µM (inactive) in the assay on COLO 205; 6.03 µM (inactive) with EKVX; 2.49 µM (inactive) in the assay on HOP-92; 0.679 µM (active) with K562. The GI50 with NCI-H226 is 11.7 µM (inactive); in the assay on NCI-H23, 3.4 µM (inactive); with OVCAR-4 it was 2.3 µM (inactive); in the assay with RPMI-8226 it was 1.67 µM (inactive); with SF-268 it was 7.52 µM (inactive); with SF-295, 1.88 µM (inactive). The results for the GI50 in the assay with SN12C, in the assay on SW-620 and in the assay on UO-31 were 6.43 µM (inactive), 1.8 µM (inactive) and 1.87 µM (inactive), respectively.

`O=C(c1ccccc1)C1OC12C(=O)Nc1ccccc12` (stereo unspecified): the GI50 in the assay with A498 is 73.1 µM (inactive); with A549 it was 46.7 µM (inactive); in the assay on COLO 205, 18 µM (inactive); with EKVX, 47.6 µM (inactive); with HOP-92 it was 20.3 µM (inactive); with K562, 4.5 µM (inactive). The GI50 with NCI-H226 is 33.4 µM (inactive); with NCI-H23 it was 21.5 µM (inactive); in the assay with OVCAR-4 it was 47.8 µM (inactive); in the assay on RPMI-8226, 20.7 µM (inactive); with SF-268 it was 59.8 µM (inactive); in the assay with SF-295, 27 µM (inactive). Also, the GI50 with SN12C was 49.4 µM (inactive); in the assay with SNB-19, 37.3 µM (inactive); in the assay with SW-620, 21.4 µM (inactive); in the assay on UO-31, 26.5 µM (inactive).

In the case of `CC(C)OP(=S)(NC(=S)c1ccccc1)OC(C)C`, the GI50 with A498, in the assay on A549, in the assay with COLO 205, in the assay on EKVX, in the assay with HCC 2998 and with HOP-92 was > 100 µM (inactive) throughout. The GI50 was > 100 µM (inactive) in the assay on K562; > 100 µM (inactive) in the assay on NCI-H226; > 100 µM (inactive) with NCI-H23; > 100 µM (inactive) in the assay on OVCAR-4; > 100 µM (inactive) with SF-268; 76.2 µM (inactive) in the assay with SF-295. Moreover, the GI50 with SN12C, in the assay with SNB-19, with SW-620 and with UO-31 was > 100 µM (inactive) in each case.

For `COc1cc(Nc2cnc3ccc(C(F)(F)F)cc3n2)cc(OC)c1OC`, the GI50 was 20.4 µM (inactive) with A549; 6.18 µM (inactive) in the assay on COLO 205; > 100 µM (inactive) with EKVX; 4.43 µM (inactive) in the assay with HCC 2998; 4.82 µM (inactive) in the assay with HOP-92; > 100 µM (inactive) in the assay on NCI-H226. Also, the GI50 was > 100 µM (inactive) with NCI-H23; 15.3 µM (inactive) in the assay on RPMI-8226; 84.5 µM (inactive) in the assay on SF-268; 5.53 µM (inactive) with SF-295; > 100 µM (inactive) with SN12C; > 100 µM (inactive) with SNB-19. Further, the values for the GI50 with SW-620 and with UO-31 were 71.8 µM (inactive) and 67.1 µM (inactive), respectively.

Consider `C=CCN1/C(=C2\SC(=S)N(c3ccc(C)cc3)C2=O)Sc2c1nc[nH]c2=O`, for which the GI50 in the assay on A498, in the assay with A549, in the assay with COLO 205, with EKVX, in the assay with HOP-92 and in the assay on K562 was > 100 µM (inactive) in each case. Besides, the GI50 in the assay on NCI-H226 is > 100 µM (inactive); in the assay with NCI-H23, > 100 µM (inactive); in the assay with OVCAR-4 it was 96.2 µM (inactive); in the assay on RPMI-8226, > 100 µM (inactive); in the assay on SF-268, > 100 µM (inactive); in the assay with SF-295 it was 88.7 µM (inactive). For the same compound, the GI50 in the assay with SN12C is 77.1 µM (inactive); with SNB-19 it was > 100 µM (inactive); in the assay on SW-620 it was 65.3 µM (inactive); in the assay on UO-31 it was > 100 µM (inactive).

`CCCCOC1CC2(c3ccc(OC)cc3)C(=O)c3ccccc3N2O1` (stereo unspecified): the GI50 in the assay with A498 is > 10 µM (inactive); with A549, 43.8 µM (inactive); in the assay on COLO 205, 27.1 µM (inactive); in the assay on EKVX, 40.7 µM (inactive); in the assay with K562, 26.5 µM (inactive); in the assay on NCI-H226 it was > 10 µM (inactive). Also, the GI50 in the assay on RPMI-8226 is 18 µM (inactive); with SF-268, 50.5 µM (inactive); in the assay with SF-295, 42.1 µM (inactive); in the assay with SN12C it was > 10 µM (inactive); in the assay on SNB-19, > 10 µM (inactive); with SW-620 it was 65 µM (inactive). The GI50 with UO-31 is > 10 µM (inactive).

Regarding `COc1ccc(/C=c2/sc3n(c2=O)NC(c2ccc(Cl)cc2)NN=3)cc1` (stereo unspecified), the GI50 with A549 was > 100 µM (inactive); in the assay with COLO 205 it was > 100 µM (inactive); in the assay on EKVX it was > 100 µM (inactive); in the assay on HCC 2998, > 100 µM (inactive); with HOP-92, 46.2 µM (inactive); with K562 it was > 100 µM (inactive). The GI50 in the assay with NCI-H226, in the assay on NCI-H23, with OVCAR-4, in the assay on SF-268, in the assay on SF-295 and with SN12C was > 100 µM (inactive) in each case. For the same compound, the GI50 in the assay with SNB-19, in the assay with SW-620 and with UO-31 was > 100 µM (inactive) throughout.

Turning to `CCCCCC(=O)Cc1cc(OC)cc2c1C(=O)Oc1cc(O)c(C(=O)O)c(CC(=O)CCCCC)c1O2`, the GI50 in the assay on A498 is 39 µM (inactive); in the assay on A549, 43.2 µM (inactive); in the assay with COLO 205, 45 µM (inactive); in the assay with EKVX, 33.1 µM (inactive); with HCC 2998, 48.5 µM (inactive); with K562, 30.6 µM (inactive). The GI50 is > 100 µM (inactive) in the assay on NCI-H226; 19.2 µM (inactive) in the assay with NCI-H23; 42 µM (inactive) in the assay on RPMI-8226; 35.2 µM (inactive) in the assay with SF-268; 55.3 µM (inactive) in the assay on SF-295; > 10 µM (inactive) with SN12C. For the same compound, in the assay on SW-620, the GI50 is > 100 µM (inactive).

With `COC(=O)CC(C(C(C)=O)C(=O)OCc1ccccc1)N1C(=O)OC(c2ccccc2)C1c1ccccc1` (stereo unspecified), the GI50 was 68.5 µM (inactive) and 76.2 µM (inactive) in the assay on A549; 72.4 µM (inactive) and 77.4 µM (inactive) with COLO 205; 64.4 µM (inactive) in the assay on EKVX; > 100 µM (inactive) and 89.3 µM (inactive) in the assay with HCC 2998; 68.5 µM (inactive) and 71.3 µM (inactive) in the assay with K562; 46.9 µM (inactive) and 55.3 µM (inactive) in the assay on NCI-H23. Moreover, the GI50 with RPMI-8226 was 28.8 µM (inactive) and 33.5 µM (inactive); in the assay with SF-268 it was 40.7 µM (inactive) and 54.5 µM (inactive); in the assay on SF-295 it was 19.5 µM (inactive) and 30.8 µM (inactive); with SN12C it was > 100 µM (inactive); in the assay on SW-620 it was > 100 µM (inactive).

Turning to `COC1/C(=C\C(=O)OC(C)(C)C)c2ccccc2N1C(C)=O` (stereo unspecified), the GI50 in the assay with A498, in the assay with A549, in the assay on COLO 205, in the assay with EKVX, in the assay on HCC 2998 and with K562 was > 100 µM (inactive) throughout. The GI50 in the assay on NCI-H23 was > 100 µM (inactive); in the assay on OVCAR-4, > 100 µM (inactive); with RPMI-8226, 34.8 µM (inactive); in the assay on SF-295, > 100 µM (inactive); in the assay with SN12C, > 100 µM (inactive); in the assay on SNB-19 it was > 100 µM (inactive). In addition, the GI50 in the assay with SW-620 and with UO-31 was > 100 µM (inactive) each time.

Take `COc1cc2cc[n+]3c4cc(OC)c(OC)cc4c(C)cc3c2cc1OC`: the GI50 in the assay with A549 was > 100 µM (inactive); in the assay with COLO 205, 89.1 µM (inactive); with EKVX it was > 100 µM (inactive); in the assay with HCC 2998, 61.8 µM (inactive); in the assay on HOP-92, > 100 µM (inactive); with K562 it was > 100 µM (inactive). Also, the GI50 in the assay with NCI-H226, in the assay with NCI-H23, in the assay on OVCAR-4, in the assay with RPMI-8226, with SF-295 and in the assay with SN12C was > 100 µM (inactive) throughout. The figures for the GI50 in the assay with SNB-19, in the assay with SW-620 and with UO-31 were 29.3 µM (inactive), > 100 µM (inactive) and > 100 µM (inactive), respectively.

The values above are taken from ChEMBL document CHEMBL1201862, “PubChem BioAssay data set” (2004).
